Data reported in patent US20250152559A1, “METHODS FOR TREATING MYC-AMPLIFIED CANCER” (The Governing Council of the University of Toronto, priority 2023, published 2025).

Test system: SU_MB002 cells
Experiment: Mass spectrometry-based metabolomics and lipidomics of treated cells
Format: cell-based, human
Experimental: For metabolome and lipidome profiling, ˜10^6 cells and tissues were washed with PBS prior to collection and immediately flash frozen. For metabolite extraction, 1 mL of cold acetonitrile/methanol/water (2:2:1; v:v:v) was added to the cell pellets followed by 3 cycles of freezing in liquid N2 for 1 min, followed by 15 min of thawing in a sonicating ice/water bath. This was followed by incubation at −20° C. and centrifugation at 16,000×g for 15 min at 4° C. […] to fully precipitate protein. Supernatants were transferred to another tube and dried in a vacuum concentrator. For lipid extraction, cells were resuspended in 30 μL of water, followed by three cycles of freeze/thawing and sonication. To this, 225 μL of methanol was added, followed by brief vortexing and addition of 750 μL of methyl tert-butyl ether (MTBE). Samples were incubated at room temperature for 1 hr with gentle shaking. To induce phase-separation, 188 μL of water was added, samples were vortexed for 20 s and centrifuged for 5 min at 16,000×g. The upper and lower phases were collected and transferred to another tube and dried down in a vacuum concentrator. The dry metabolome and lipidome extracts were stored at −80° C. prior to analysis by liquid chromatography-mass spectrometry (LC-MS). Metabolite extracts were reconstituted in LC-MS grade water/acetonitrile (50:50; v:v), vortexed for 1 min, sonicated for 15 min, and centrifuged at 16,000×g and 4° C. for 15 min to remove insoluble debris. The lipidome extracts were reconstituted in acetonitrile/2-propanol (50:50; v:v), vortexed for 1 min, sonicated for 15 min, and centrifuged at 16,000×g and 10° C. for 15 min to remove insoluble debris.
The LC-MS metabolomics and lipidomics analyses of the 3 NSC and 3 MB cell lines and tissues were performed on a UPLC-MS system consisting of an Orbitrap IQ-X Tribrid coupled to a Horizon Vanquish UPLC system (Thermo Fisher Scientific). The lipidomics analysis was conducted in positive-ion mode with a spray voltage of 3.5 kV while the metabolomics analysis was conducted in negative-ion mode with a spray voltage of −2.5 kV. The following source conditions were identical in both analyses and were set as follows: Sheath gas flow rate, 50 arbitrary units; Aux. gas flow rate, 10 arbitrary units; Sweep gas flow rate, 1 arbitrary unit; Ion transfer tube temp., 300° C.; Vaporizer temp., 350° C. The following acquisition parameters were used for MS1 analysis in both methods: resolution, 120,000, AGC target, 4e5. The maximum IT was set at […] for the lipidomics analysis and 200 ms for the metabolomics analysis. Data-dependent MS/MS parameters for the lipidomics analyses: resolution, 30,000; AGC target, 7.5e4; maximum IT, Dynamic (54 ms); time between Master Scans, 0.6 s; isolation window, 1.0 m/z; NCE/stepped nce, 20, 30, 40; intensity threshold, 5e4; exclude isotopes, on; dynamic exclusion, 3.0 s. Data-dependent MS/MS parameters for the metabolomics analyses: resolution. 15,000; AGC target, 7.5e4; maximum IT, Dynamic (22 ms); time between Master Scans, 0.6 s; isolation window, 1.0 m/z; NCE/stepped nce, 20, 30, 40, 50; intensity threshold, 5e4; exclude isotopes, on; dynamic exclusion, 5.0 s. To increase the total number of MS/MS spectra in the lipidomics analysis, five runs with iterative MS/MS exclusions were performed using the AcquireX function in Xcalibur (Thermo Fisher Scientific). In the metabolomics analysis, three runs with iterative MS/MS exclusions were performed using the AcquireX function. For the lipidomics analysis, chromatographic separation was achieved using a Waters Acquity UPLC CSH C18 (100 mm×2.1 mm i.d.; 1.7 μm) column injecting 2 μL. […] The column was equilibrated for 2 min at 15% B. The flow rate was set to 250 μL/min. The column temperature was maintained at 65° C. For the metabolomics analysis, chromatographic separation was achieved using a SeQuant ZIC-PHILIC (150 mm×2.1 mm i.d.; 5 μm) column injecting 2 μL. […]

[1] = SU_MB002 cells treated with BAY (IC90)
[2] = SU_MB002 cells, BAY (IC90) vs vehicle

CCn1c(CO)nn(-c2cc(O[C@@H](C)C(F)(F)F)c(C(=O)Nc3c(F)cccc3Cl)cc2F)c1=O [BAY2402234]
2-Aminoadipic acid normalized peak intensity, BAY average [1]: 26487
Argininosuccinic acid normalized peak intensity, BAY average [1]: 114194
Asparagine normalized peak intensity, BAY average [1]: 172639.25
Aspartic Acid normalized peak intensity, BAY average [1]: 214198
CDP normalized peak intensity, BAY average [1]: 5476872.25
CTP normalized peak intensity, BAY average [1]: 810207.75
Citramalate normalized peak intensity, BAY average [1]: 4459.5
Citrate normalized peak intensity, BAY average [1]: 76953
Creatine phosphate normalized peak intensity, BAY average [1]: 619707.25
Cystathionine normalized peak intensity, BAY average [1]: 3636
Dihydroorotic Acid normalized peak intensity, BAY average [1]: 462202
Gluconic acid normalized peak intensity, BAY average [1]: 1081576.5
Glutamate normalized peak intensity, BAY average [1]: 26227101.8
Glyceraldehyde-3-phosphate normalized peak intensity, BAY average [1]: 78313.3333
Hydroxyglutaric acid normalized peak intensity, BAY average [1]: 37974496.3
Inositol normalized peak intensity, BAY average [1]: 40859409.5
N-Acetyl glucosamine monophosphate normalized peak intensity, BAY average [1]: 8697678.5
N-Acetylglutamic Acid normalized peak intensity, BAY average [1]: 189382
N-Carbamoyl Aspartic Acid normalized peak intensity, BAY average [1]: 31547.3333
PE O-32:1 normalized peak intensity, BAY average [1]: 2472183.74
PE O-32:2 normalized peak intensity, BAY average [1]: 11446617.4
PE O-34:1 normalized peak intensity, BAY average [1]: 3839410.03
PE O-34:2 normalized peak intensity, BAY average [1]: 92503648
PE O-36:1 normalized peak intensity, BAY average [1]: 531398.036
PE O-36:2 normalized peak intensity, BAY average [1]: 102597837
PE O-36:4 normalized peak intensity, BAY average [1]: 258977958
PE O-38:4 normalized peak intensity, BAY average [1]: 210123122
PE O-40:2 normalized peak intensity, BAY average [1]: 10612336
PE O-40:4 normalized peak intensity, BAY average [1]: 226507622
PE O-42:3 normalized peak intensity, BAY average [1]: 911901.571
PE O-42:4 normalized peak intensity, BAY average [1]: 13670542.5
PE O-42:5 normalized peak intensity, BAY average [1]: 14681375.2
Proline normalized peak intensity, BAY average [1]: 129729612
Saccharopine normalized peak intensity, BAY average [1]: 11126.3333
Sarcosine normalized peak intensity, BAY average [1]: 178498.5
TG(42:0) normalized peak intensity, BAY average [1]: 15967351.9
TG(44:0) normalized peak intensity, BAY average [1]: 64916660.2
TG(44:1) normalized peak intensity, BAY average [1]: 72494555.5
TG(44:2) normalized peak intensity, BAY average [1]: 23582680.7
TG(46:3) normalized peak intensity, BAY average [1]: 35191113.7
TG(48:0) normalized peak intensity, BAY average [1]: 234715455
TG(48:1) normalized peak intensity, BAY average [1]: 2421262.9
TG(48:3) normalized peak intensity, BAY average [1]: 16895583.2
TG(48:4) normalized peak intensity, BAY average [1]: 33300539.1
TG(48:5) normalized peak intensity, BAY average [1]: 2707280.56
TG(50:0) normalized peak intensity, BAY average [1]: 235218307
TG(50:2) normalized peak intensity, BAY average [1]: 1182402177
TG(50:3) normalized peak intensity, BAY average [1]: 595402718
TG(52:1) normalized peak intensity, BAY average [1]: 649526618
TG(52:5) normalized peak intensity, BAY average [1]: 9440406.47
TG(54:1) normalized peak intensity, BAY average [1]: 104051454
TG(54:6) normalized peak intensity, BAY average [1]: 36773026.8
TG(56:7) normalized peak intensity, BAY average [1]: 13481295.5
UDP normalized peak intensity, BAY average [1]: 964954.5
UDP-Glucose normalized peak intensity, BAY average [1]: 609888.333
UTP normalized peak intensity, BAY average [1]: 215065
Uridine normalized peak intensity, BAY average [1]: 26154.5
Xanthosine normalized peak intensity, BAY average [1]: 617698.75
alpha-Ketoglutaric acid normalized peak intensity, BAY average [1]: 112368
dCTP normalized peak intensity, BAY average [1]: 109835
dTDP normalized peak intensity, BAY average [1]: 13149248
2-Aminoadipic acid Log2 Fold Change: (BAY)/(DMSO) [2]: −1.831
Argininosuccinic acid Log2 Fold Change: (BAY)/(DMSO) [2]: 0.9374
Asparagine Log2 Fold Change: (BAY)/(DMSO) [2]: −2.552
Aspartic Acid Log2 Fold Change: (BAY)/(DMSO) [2]: 0.6679
CDP Log2 Fold Change: (BAY)/(DMSO) [2]: −1.056
CTP Log2 Fold Change: (BAY)/(DMSO) [2]: −1.688
Citramalate Log2 Fold Change: (BAY)/(DMSO) [2]: −1.15
Citrate Log2 Fold Change: (BAY)/(DMSO) [2]: −2.924
Creatine phosphate Log2 Fold Change: (BAY)/(DMSO) [2]: −0.8039
Cystathionine Log2 Fold Change: (BAY)/(DMSO) [2]: −1.709
Dihydroorotic Acid Log2 Fold Change: (BAY)/(DMSO) [2]: −2.147
Gluconic acid Log2 Fold Change: (BAY)/(DMSO) [2]: 2.808
Glutamate Log2 Fold Change: (BAY)/(DMSO) [2]: 0.5525
Glyceraldehyde-3-phosphate Log2 Fold Change: (BAY)/(DMSO) [2]: −1.224
Hydroxyglutaric acid Log2 Fold Change: (BAY)/(DMSO) [2]: 7.211
Inositol Log2 Fold Change: (BAY)/(DMSO) [2]: −0.7576
N-Acetyl glucosamine monophosphate Log2 Fold Change: (BAY)/(DMSO) [2]: −0.5317
N-Acetylglutamic Acid Log2 Fold Change: (BAY)/(DMSO) [2]: 1.218
N-Carbamoyl Aspartic Acid Log2 Fold Change: (BAY)/(DMSO) [2]: −2.853
PE O-32:1 Log2 Fold Change: (BAY)/(DMSO) [2]: 1.371
PE O-32:2 Log2 Fold Change: (BAY)/(DMSO) [2]: 1.59
PE O-34:1 Log2 Fold Change: (BAY)/(DMSO) [2]: 0.7945
PE O-34:2 Log2 Fold Change: (BAY)/(DMSO) [2]: 1.319
PE O-36:1 Log2 Fold Change: (BAY)/(DMSO) [2]: 0.9815
PE O-36:2 Log2 Fold Change: (BAY)/(DMSO) [2]: 0.7435
PE O-36:4 Log2 Fold Change: (BAY)/(DMSO) [2]: 0.9655
PE O-38:4 Log2 Fold Change: (BAY)/(DMSO) [2]: 0.6388
PE O-40:2 Log2 Fold Change: (BAY)/(DMSO) [2]: 0.4723
PE O-40:4 Log2 Fold Change: (BAY)/(DMSO) [2]: 0.2968
PE O-42:3 Log2 Fold Change: (BAY)/(DMSO) [2]: 0.5216
PE O-42:4 Log2 Fold Change: (BAY)/(DMSO) [2]: 0.6964
PE O-42:5 Log2 Fold Change: (BAY)/(DMSO) [2]: 0.2828
Proline Log2 Fold Change: (BAY)/(DMSO) [2]: 11.27
Saccharopine Log2 Fold Change: (BAY)/(DMSO) [2]: −1.712
Sarcosine Log2 Fold Change: (BAY)/(DMSO) [2]: −0.4764
TG(42:0) Log2 Fold Change: (BAY)/(DMSO) [2]: 2.859
TG(44:0) Log2 Fold Change: (BAY)/(DMSO) [2]: 2.947
TG(44:1) Log2 Fold Change: (BAY)/(DMSO) [2]: 3.568
TG(44:2) Log2 Fold Change: (BAY)/(DMSO) [2]: 4.285
TG(46:3) Log2 Fold Change: (BAY)/(DMSO) [2]: 4.265
TG(48:0) Log2 Fold Change: (BAY)/(DMSO) [2]: 1.816
TG(48:1) Log2 Fold Change: (BAY)/(DMSO) [2]: 2.541
TG(48:3) Log2 Fold Change: (BAY)/(DMSO) [2]: 3.131
TG(48:4) Log2 Fold Change: (BAY)/(DMSO) [2]: 3.96
TG(48:5) Log2 Fold Change: (BAY)/(DMSO) [2]: 5.389
TG(50:0) Log2 Fold Change: (BAY)/(DMSO) [2]: 1.574
TG(50:2) Log2 Fold Change: (BAY)/(DMSO) [2]: 1.881
TG(50:3) Log2 Fold Change: (BAY)/(DMSO) [2]: 2.346
TG(52:1) Log2 Fold Change: (BAY)/(DMSO) [2]: 1.065
TG(52:5) Log2 Fold Change: (BAY)/(DMSO) [2]: 2.418
TG(54:1) Log2 Fold Change: (BAY)/(DMSO) [2]: 0.738
TG(54:6) Log2 Fold Change: (BAY)/(DMSO) [2]: 1.79
TG(56:7) Log2 Fold Change: (BAY)/(DMSO) [2]: 1.418
UDP Log2 Fold Change: (BAY)/(DMSO) [2]: −3.019
UDP-Glucose Log2 Fold Change: (BAY)/(DMSO) [2]: −2.77
UTP Log2 Fold Change: (BAY)/(DMSO) [2]: −3.375
Uridine Log2 Fold Change: (BAY)/(DMSO) [2]: −4.037
Xanthosine Log2 Fold Change: (BAY)/(DMSO) [2]: 3.486
alpha-Ketoglutaric acid Log2 Fold Change: (BAY)/(DMSO) [2]: −1.687
dCTP Log2 Fold Change: (BAY)/(DMSO) [2]: 2.27
dTDP Log2 Fold Change: (BAY)/(DMSO) [2]: 1.896
